Source: PMC13075795, “A dual-threshold system relying on multiple c-di-GMP metabolic enzymes controls cell fate of a cyanobacterium” (PLOS Biology, 2026)
Each block holds one molecule with its values, some of them ahead of it.

Legend:
[1] = biological target: T1, Alr1219-ΔCT (All1219-ΔCT) (Nostoc sp. PCC 7120 = FACHB-418, UniProt A0ACD7RQN0); assay: HPLC diguanylate cyclase inhibition assay (GTP consumption); type: biochemical
T1 construct: C-terminal twin Strep-tag kept; expressed in E. coli BL21(DE3)

Alr3599 = biological target: T2, Alr3599 (Nostoc sp. PCC 7120 = FACHB-418, UniProt A0ACD7RVV5); assay: as above; type: biochemical
T2 construct: full-length; pHTwinStrep vector, C-terminal twin Strep-tag kept; expressed in E. coli BL21(DE3); Strep-Tactin and SEC

CdgS = biological target: T3, CdgS (Nostoc sp. PCC 7120 = FACHB-418, UniProt A0ACD7RTW6); assay: as above; type: biochemical
T3 construct: gene all2874; full-length; pHTwinStrep vector, C-terminal twin Strep-tag kept; expressed in E. coli BL21(DE3); Strep-Tactin and SEC
T3 sequence (A0ACD7RTW6 1-330): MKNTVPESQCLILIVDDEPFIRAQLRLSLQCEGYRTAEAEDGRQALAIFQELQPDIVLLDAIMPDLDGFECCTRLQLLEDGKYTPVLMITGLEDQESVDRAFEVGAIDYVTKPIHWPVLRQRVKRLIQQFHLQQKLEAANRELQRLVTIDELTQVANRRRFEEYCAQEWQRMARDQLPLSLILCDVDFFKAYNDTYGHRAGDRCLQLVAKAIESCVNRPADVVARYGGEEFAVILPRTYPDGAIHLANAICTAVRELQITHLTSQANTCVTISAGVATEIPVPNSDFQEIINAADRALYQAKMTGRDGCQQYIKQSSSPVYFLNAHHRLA

[2] = substrate: Nc1nc2c(ncn2[C@@H]2O[C@H](COP(=O)(O)OP(=O)(O)OP(=O)(O)O)[C@@H](O)[C@H]2O)c(=O)[nH]1; assay: HPLC diguanylate cyclase assay, Michaelis-Menten fit; type: biochemical, Nostoc sp. PCC 7120 = FACHB-418; conditions: 3.13-200 μM GTP, 1 μM protein, 10 min, 25 °C, 50 mM Tris-HCl pH 8.0, 0.2 M NaCl, 10 mM MgCl2

- Ki [1]: 3.7 µM
- Ki (Alr3599): 16 µM
- Ki (CdgS): 2.42 µM
Molecule: Nc1nc2c(ncn2[C@@H]2O[C@@H]3CO[P@](=O)(O)O[C@H]4[C@@H](O)[C@H](n5cnc6c(=O)[nH]c(N)nc65)O[C@@H]4CO[P@](=O)(O)O[C@H]3[C@H]2O)c(=O)[nH]1 [c-di-GMP]

B1: CdgS (Nostoc sp. PCC 7120 = FACHB-418) (protein)
chain: T3 sequence (A0ACD7RTW6 1-330)
notes: full-length; pHTwinStrep vector, C-terminal twin Strep-tag kept; expressed in E. coli BL21(DE3); Strep-Tactin and SEC
- Km [2]: 26.6 ± 3.5 µM

B2: Alr3599 (Nostoc sp. PCC 7120 = FACHB-418) (protein)
chain: MSGISPYSLSKKPPVILVADDDKTIRMLLREAMEKEGYRVVEVTDGKQCLDAYEAVKPDIVLLDAMMPVMDGFTCCKQLLQIARNNLITALANLDTDSGLGNTVISRLWERTPILMITSLNDAESVDRAFEAGATDYITKPIHWAVLRQRLRRLLQQAQVYKQLEAANMALQHLANVDGLTGLANRRRFDNYLNTQWINLVQEGAPLSLILCDIDYFKFYNDQYGHPTGDICLQKVGAVLSYKAQKHQDLVARYGGEEFAVVMPYTHAKGAIYVAHAIQTSVRDLQIAHDKSAVSQHITLSMGVATITPTWESSPSDLIAAADKALYKAKESGRNRICQWEDSQ
notes: as for B1
- Km [2]: 84.2 ± 30.1 µM

B3: Alr1219-ΔCT (All1219-ΔCT) (Nostoc sp. PCC 7120 = FACHB-418) (protein)
chain: HMQEELKRSKEFLQQVIDTIADPIFVKNEQHQWIVLNKAYCRFIGYPESFLVEKSDVDFFPKHEADVFRQQDELVFETQRPQENEEEFTDAYGKTHLIATKRSLHKDAAGNFFLVGVIRDITQRKIMEEELKRTAAELFRSNNELKLKEDHLRYLAYHDALTGLPNRKYFAEQLYESINWAKDNNLSLGLLFIDLDGFKQVNDSLGHEMGDRLLVVIAQRLSNSLRASDTVARLGGDEFTVILQAIPNVQVAAKVAEKILANITEPIVLNGCTAKVSVSIGISIYPETSLDPDTLLKKADAAMYRAKHLGKNRFELADRVNTEF
notes: C-terminal twin Strep-tag kept; expressed in E. coli BL21(DE3)
- Km [2]: 20.3 ± 12.4 µM
